This note sets out measurements from ChEMBL document CHEMBL6103578, “Design and synthesis three novel series of derivatives using natural acetylcholinesterase inhibitor-RLMS as template and in vitro, in vivo and in silico activities verification” (Eur J Med Chem, 2025).

In general, IC50 refers to the concentration that gives 50% inhibition. A higher IC50 goes with lower potency.

The target in test [1] is Acetylcholinesterase (Homo sapiens, UniProt P22303). The test can be described thus: Inhibition of AChE (unknown origin) using ATCI as substrate preincubated for 20 mins followed by substrate addition measured after 30 mins by DTNB assay.
Sequence of Acetylcholinesterase (P22303 whole entry): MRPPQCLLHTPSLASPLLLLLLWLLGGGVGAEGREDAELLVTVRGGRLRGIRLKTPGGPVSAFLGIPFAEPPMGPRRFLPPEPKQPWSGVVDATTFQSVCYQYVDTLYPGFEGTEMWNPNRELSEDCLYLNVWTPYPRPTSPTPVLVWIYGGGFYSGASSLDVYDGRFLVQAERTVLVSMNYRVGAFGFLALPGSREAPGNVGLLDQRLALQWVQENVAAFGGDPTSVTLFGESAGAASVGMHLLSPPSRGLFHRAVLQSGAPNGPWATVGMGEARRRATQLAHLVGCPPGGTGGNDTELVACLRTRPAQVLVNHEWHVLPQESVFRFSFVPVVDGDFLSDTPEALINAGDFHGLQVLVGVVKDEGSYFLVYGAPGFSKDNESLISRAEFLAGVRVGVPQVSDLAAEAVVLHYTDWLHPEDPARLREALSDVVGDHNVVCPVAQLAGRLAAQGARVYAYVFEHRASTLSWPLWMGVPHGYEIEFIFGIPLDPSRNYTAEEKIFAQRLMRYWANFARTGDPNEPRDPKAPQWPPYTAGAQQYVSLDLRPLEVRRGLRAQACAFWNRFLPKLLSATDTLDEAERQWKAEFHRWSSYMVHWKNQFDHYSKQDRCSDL
Test [2] deals with SH-SY5Y. The test can be described thus: Neuroprotective effect against H2O2-induced cell injury in human SH-SY5Y cells assessed as cell survival at 25 to 100 uM preincubated for 1 hr followed by H2O2 addition measured after 2 hrs by MTT assay (reference value: 57.76 %). Format: functional. The settings on record: dose 25-100 µM, time 3 hrs.

The compound `COc1ccc(C(=O)OC[C@]2(C)C=C(C=O)[C@@]3(C)[C@H]2CC[C@]2(C)[C@@H]3CC=C3[C@H]4[C@](C(=O)O)(CC[C@@H](C)[C@@]4(C)OC(=O)c4ccc(OC)cc4)CC[C@]32C)cc1` gave an IC50 in test [1] of 70.2 µM. For the same compound, the Activity in test [2] is on record as more than 57.76%.
Turning to `C[C@@H]1CC[C@]2(C(=O)NCc3ccccc3F)CC[C@]3(C)C(=CC[C@@H]4[C@@]5(C)C[C@@H](O)[C@H](O)[C@@](C)(CO)[C@@H]5CC[C@]43C)[C@@H]2[C@]1(C)O`, the concentration for half-maximal inhibition (IC50) in test [1] is more than 100 µM. Also, in test [2], the Activity is less than 57.76%.
On to `C[C@@H]1CC[C@]2(C(=O)NCc3cccc(Cl)c3)CC[C@]3(C)C(=CC[C@@H]4[C@@]5(C)C[C@@H](O)[C@H](O)[C@@](C)(CO)[C@@H]5CC[C@]43C)[C@@H]2[C@]1(C)O`, for which the IC50 in test [1] was determined as 63 µM. For the same compound, the Activity in test [2] is given as more than 57.76%.
In test [1], `C[C@@H]1CC[C@]2(C(=O)O)CC[C@]3(C)C(=CC[C@@H]4[C@@]5(C)C[C@@H](OC(=O)c6ccc(Cl)cc6)[C@H](OC(=O)c6ccc(Cl)cc6)[C@@](C)(COC(=O)c6ccc(Cl)cc6)[C@@H]5CC[C@]43C)[C@@H]2[C@]1(C)O` returned an IC50 of 5.91 µM. Besides, the Activity in test [2] is given as more than 57.76%.
In the case of `C[C@@H]1CC[C@]2(C(=O)O)CC[C@]3(C)C(=CC[C@@H]4[C@@]5(C)C[C@@H](O)OCC(C)(C=O)[C@@H]5CC[C@]43C)[C@@H]2[C@]1(C)O` (stereo not given in full), the IC50 in test [1] is more than 100 µM. For the same compound, the Activity in test [2] is more than 57.76%.
Consider `C[C@@H]1CC[C@]2(C(=O)NCc3ccc(F)cc3)CC[C@]3(C)C(=CC[C@@H]4[C@@]5(C)C[C@@H](O)[C@H](O)[C@@](C)(CO)[C@@H]5CC[C@]43C)[C@@H]2[C@]1(C)O`, for which the IC50 in test [1] was more than 100 µM. The Activity in test [2] is on record as less than 57.76%.
In the case of `C[C@@H]1CC[C@]2(C(=O)O)CC[C@]3(C)C(=CC[C@@H]4[C@@]5(C)C[C@@H](O)[C@H](OC(=O)c6ccc(C(F)(F)F)cc6)[C@@](C)(CO)[C@@H]5CC[C@]43C)[C@@H]2[C@]1(C)O`, the IC50 in test [1] was more than 100 µM. For the same compound, the Activity in test [2] is given as more than 57.76%.
In test [1], `C[C@@H]1CC[C@]2(C(=O)NCc3cccc(F)c3)CC[C@]3(C)C(=CC[C@@H]4[C@@]5(C)C[C@@H](O)[C@H](O)[C@@](C)(CO)[C@@H]5CC[C@]43C)[C@@H]2[C@]1(C)O` had an IC50 of more than 100 µM. In addition, in test [2], the Activity is listed as less than 57.76%.
For `CCCCCC(=O)OC[C@]1(C)C=C(C=O)[C@@]2(C)[C@H]1CC[C@]1(C)[C@@H]2CC=C2[C@H]3[C@](C(=O)O)(CC[C@@H](C)[C@@]3(C)O)CC[C@]21C` the same measures were more than 100 µM and more than 57.76%.
Take `C[C@@H]1CC[C@]2(C(=O)O)CC[C@]3(C)C(=CC[C@@H]4[C@@]5(C)C(C=O)=C[C@@](C)(CO)[C@@H]5CC[C@]43C)[C@@H]2[C@]1(C)O`: the IC50 in test [1] is more than 100 µM. For the same compound, the Activity in test [2] is listed as more than 57.76%.
The compound `C[C@@H]1CC[C@]2(C(=O)O)CC[C@]3(C)C(=CC[C@@H]4[C@@]5(C)C[C@@H](OC(=O)c6ccc(Cl)cc6)[C@H](O)[C@@](C)(CO)[C@@H]5CC[C@]43C)[C@@H]2[C@]1(C)OC(=O)c1ccc(Cl)cc1` registered a half-maximal inhibitory concentration (IC50) in test [1] of 54.3 µM. Moreover, the Activity in test [2] is reported as less than 57.76%.
For `CCCC(=O)OC[C@]1(C)C=C(C=O)[C@@]2(C)[C@H]1CC[C@]1(C)[C@@H]2CC=C2[C@H]3[C@](C(=O)O)(CC[C@@H](C)[C@@]3(C)O)CC[C@]21C` the same measures were more than 100 µM and less than 57.76%.
For `C[C@@H]1CC[C@]2(C(=O)O)CC[C@]3(C)C(=CC[C@@H]4[C@@]5(C)C(C=O)=C[C@@](C)(COC(=O)c6ccc(F)cc6)[C@@H]5CC[C@]43C)[C@@H]2[C@]1(C)O` the same measures were 71.9 µM and less than 57.76%.
In test [1], `CCCCCCNC(=O)[C@]12CC[C@@H](C)[C@@](C)(O)[C@H]1C1=CC[C@@]3(C)[C@@](C)(CC[C@H]4[C@](C)(CO)[C@@H](O)[C@H](O)C[C@@]43C)[C@]1(C)CC2` came in with an IC50 of more than 100 µM. Moreover, the Activity in test [2] is reported as more than 57.76%.
In test [1], `C[C@@H]1CC[C@]2(C(=O)O)CC[C@]3(C)C(=CC[C@@H]4[C@@]5(C)C(C=O)=C[C@@](C)(COC(=O)CCc6ccccc6)[C@@H]5CC[C@]43C)[C@@H]2[C@]1(C)O` registered an IC50 of 46.2 µM. For the same compound, in test [2], the Activity is reported as more than 57.76%.
In turn, `C[C@@H]1CC[C@]2(C(=O)NCCc3ccc(Cl)c(Cl)c3)CC[C@]3(C)C(=CC[C@@H]4[C@@]5(C)C[C@@H](O)[C@H](O)[C@@](C)(CO)[C@@H]5CC[C@]43C)[C@@H]2[C@]1(C)O` displayed an IC50 in test [1] of more than 100 µM. Also, in test [2], the Activity was more than 57.76%.
For `C[C@@H]1CC[C@]2(C(=O)O)CC[C@]3(C)C(=CC[C@@H]4[C@@]5(C)C[C@@H](OC(=O)c6ccc(C(F)(F)F)cc6)[C@H](OC(=O)c6ccc(C(F)(F)F)cc6)[C@@](C)(CO)[C@@H]5CC[C@]43C)[C@@H]2[C@]1(C)O` the same measures were 43.4 µM and more than 57.76%.
`C[C@@H]1CC[C@]2(C(=O)O)CC[C@]3(C)C(=CC[C@@H]4[C@@]5(C)C(C=O)=C[C@@](C)(COC(=O)c6ccc(Cl)cc6)[C@@H]5CC[C@]43C)[C@@H]2[C@]1(C)OC(=O)c1ccc(Cl)cc1` came in with an IC50 in test [1] of more than 100 µM. In test [2], the Activity is on record as more than 57.76%.
With `C[C@@H]1CC[C@]2(C(=O)NCc3ccc(Cl)cc3)CC[C@]3(C)C(=CC[C@@H]4[C@@]5(C)C[C@@H](O)[C@H](O)[C@@](C)(CO)[C@@H]5CC[C@]43C)[C@@H]2[C@]1(C)O`, the IC50 in test [1] came out at 64.8 µM. Also, the Activity in test [2] is more than 57.76%.
Take `C[C@@H]1CC[C@]2(C(=O)NC3CCCCC3)CC[C@]3(C)C(=CC[C@@H]4[C@@]5(C)C[C@@H](O)[C@H](O)[C@@](C)(CO)[C@@H]5CC[C@]43C)[C@@H]2[C@]1(C)O`: in test [1], inhibition was half-maximal at 80.4 µM (IC50). The Activity in test [2] is more than 57.76%.
In the same order, the values of `C[C@@H]1CC[C@]2(C(=O)NCc3ccccc3Br)CC[C@]3(C)C(=CC[C@@H]4[C@@]5(C)C[C@@H](O)[C@H](O)[C@@](C)(CO)[C@@H]5CC[C@]43C)[C@@H]2[C@]1(C)O` are 47.7 µM and more than 57.76%.
In the same order, the values of `C[C@@H]1CC[C@]2(C(=O)O)CC[C@]3(C)C(=CC[C@@H]4[C@@]5(C)C[C@@H](OC(=O)CCc6ccccc6)[C@H](O)[C@@](C)(CO)[C@@H]5CC[C@]43C)[C@@H]2[C@]1(C)O` are 11.5 µM and more than 57.76%.
`COc1ccc(C(=O)O[C@]2(C)[C@H](C)CC[C@]3(C(=O)O)CC[C@]4(C)C(=CC[C@@H]5[C@@]6(C)C(C=O)=C[C@@](C)(CO)[C@@H]6CC[C@]54C)[C@@H]32)cc1` had an IC50 in test [1] of more than 100 µM. For the same compound, the Activity in test [2] is given as more than 57.76%.
For `C[C@@H]1CC[C@]2(C(=O)NCc3ccc(Br)cc3)CC[C@]3(C)C(=CC[C@@H]4[C@@]5(C)C[C@@H](O)[C@H](O)[C@@](C)(CO)[C@@H]5CC[C@]43C)[C@@H]2[C@]1(C)O` the same measures were 84.5 µM and more than 57.76%.
In the same order, the values of `C[C@@H]1CC[C@]2(C(=O)O)CC[C@]3(C)C(=CC[C@@H]4[C@@]5(C)C(C=O)=C[C@@](C)(COC(=O)c6ccc(C(F)(F)F)cc6)[C@@H]5CC[C@]43C)[C@@H]2[C@]1(C)O` are more than 100 µM and more than 57.76%.
